Reference: article PMC9889419 (Pharmacological Reports, 2022)
Counter-ions that a name gives are not always drawn.

How the values were obtained:
[1] = test system: organotypic hippocampal slice cultures; assay: Neuroprotection primary screen, excitotoxin NMDA; type: cell-based; conditions: NMDA 10 µM; 10 and 100 µM compound
Excerpt: Gompound 1 : ADD Number: ItSot+ Batct: lE- Date Started:
Compound 2 : ADD Number: Froso Batct: le Date Completed i l|26-M ar -20 1 O […]
Excitotoxin: lNmoa lnsult Duration: la Uouo Solvent:
Primary Screen Results: ffi […]
Al lruuoa rolrr,| A2lr'rrr,tOa r Olrrr,t * --.- A3 lr'rnroa r oprvr + lsaoot+ t oplrl+aesogo iopM
BZ lr.rrr,ron ropr,t , -_-_-- 83 lluoa topt',r * jffi 1 4 t oopM.€sroso 1 oolrM la+eota tooptu*aasoeo roffi […]
The 'Primary screen Experiment" is a qualitative assessment of the ability of a compound to prevent excrtotoxic cell death. organotypic hippocampal slice cultures are treated *ltn r.i-."iivr-o-"spartate (NMDA) or kainic acad (KA) to induce neuronal cell death' Propidium iodide (Pl), a membrane-imper.eant cornpouna, is included in all wells of the culture plate.
Dying cells have compromised *]lT^"Toj*::, ttr. er rnJy oin "" into the cell, intercatate with DNA and fluoresce. Thus, the intensity of the Pl fluorescence is proportional to the amount of cell death in lhe individual itices. ttippocampat slice cullures are treated with the excitotoxin alone, or *i er. inoi"ui"o above, with the excitotoxin and either one -qf]bar-a Investigalional compounds at the concentrations indicated. lf neuroprotectron occurs as a consequence of the added […]
been treated with the excitotoxin alone.
(§1) (1 picture or pasted object on this page, not shown here)

mice = assay: Picrotoxin-induced seizures; type: in vivo; conditions: ip
NIE-115 cells = assay: Patch-clamp (sodium currents); type: cell-based; conditions: 100 µM
[2] = test system: CYP3A1 (pregnane X receptor); assay: In vitro metabolic gene induction studies; type: cell-based, rat
Procedure: Test 28 - In Vitro Metabolic Gene lnduction Studies
:.!,iIir:- i- :: ar!-'{}-: i
Solvent Code: DMSO Solvent Prep: Unit: uM
Cell line source: Puracyp Molecular 257.7590
Date Staded: 05+eb-20'10 Date Completed: 15-Feb-2010 Weight:
Reference: Lamb bool#8 pg. 77 […]
lsoform Code: CYP3A1 Cell line: RPXR lnduc60n mechanism:pregnane X receptor
Concentration lnduction Cell […]
Note: Box checked if data is significantty different.
Max induction 2 fold @ 200uM
(calculated): signlficant decrease in vlabllity at this conc€nbaffon in vitro.
as §1

NMDA = assay: Electrophysiology studies (Test 17); type: cell-based; conditions: 100 uM, holding potential -70 mV
Excerpt: Solvent Code: DMSO Solvent Prep: 257.759
Test Add CompoundConc.(uM) # Cells % Control +/- SEM
as §1

hNav1.5 sodium channel = target: T1, hNav1.5 sodium channel (Homo sapiens, UniProt Q14524); assay: Nav channel electrophysiology (IonWorks Quattro); type: cell-based
T1 construct: host or cells: CHO cells
T1 sequence (Q14524 whole entry): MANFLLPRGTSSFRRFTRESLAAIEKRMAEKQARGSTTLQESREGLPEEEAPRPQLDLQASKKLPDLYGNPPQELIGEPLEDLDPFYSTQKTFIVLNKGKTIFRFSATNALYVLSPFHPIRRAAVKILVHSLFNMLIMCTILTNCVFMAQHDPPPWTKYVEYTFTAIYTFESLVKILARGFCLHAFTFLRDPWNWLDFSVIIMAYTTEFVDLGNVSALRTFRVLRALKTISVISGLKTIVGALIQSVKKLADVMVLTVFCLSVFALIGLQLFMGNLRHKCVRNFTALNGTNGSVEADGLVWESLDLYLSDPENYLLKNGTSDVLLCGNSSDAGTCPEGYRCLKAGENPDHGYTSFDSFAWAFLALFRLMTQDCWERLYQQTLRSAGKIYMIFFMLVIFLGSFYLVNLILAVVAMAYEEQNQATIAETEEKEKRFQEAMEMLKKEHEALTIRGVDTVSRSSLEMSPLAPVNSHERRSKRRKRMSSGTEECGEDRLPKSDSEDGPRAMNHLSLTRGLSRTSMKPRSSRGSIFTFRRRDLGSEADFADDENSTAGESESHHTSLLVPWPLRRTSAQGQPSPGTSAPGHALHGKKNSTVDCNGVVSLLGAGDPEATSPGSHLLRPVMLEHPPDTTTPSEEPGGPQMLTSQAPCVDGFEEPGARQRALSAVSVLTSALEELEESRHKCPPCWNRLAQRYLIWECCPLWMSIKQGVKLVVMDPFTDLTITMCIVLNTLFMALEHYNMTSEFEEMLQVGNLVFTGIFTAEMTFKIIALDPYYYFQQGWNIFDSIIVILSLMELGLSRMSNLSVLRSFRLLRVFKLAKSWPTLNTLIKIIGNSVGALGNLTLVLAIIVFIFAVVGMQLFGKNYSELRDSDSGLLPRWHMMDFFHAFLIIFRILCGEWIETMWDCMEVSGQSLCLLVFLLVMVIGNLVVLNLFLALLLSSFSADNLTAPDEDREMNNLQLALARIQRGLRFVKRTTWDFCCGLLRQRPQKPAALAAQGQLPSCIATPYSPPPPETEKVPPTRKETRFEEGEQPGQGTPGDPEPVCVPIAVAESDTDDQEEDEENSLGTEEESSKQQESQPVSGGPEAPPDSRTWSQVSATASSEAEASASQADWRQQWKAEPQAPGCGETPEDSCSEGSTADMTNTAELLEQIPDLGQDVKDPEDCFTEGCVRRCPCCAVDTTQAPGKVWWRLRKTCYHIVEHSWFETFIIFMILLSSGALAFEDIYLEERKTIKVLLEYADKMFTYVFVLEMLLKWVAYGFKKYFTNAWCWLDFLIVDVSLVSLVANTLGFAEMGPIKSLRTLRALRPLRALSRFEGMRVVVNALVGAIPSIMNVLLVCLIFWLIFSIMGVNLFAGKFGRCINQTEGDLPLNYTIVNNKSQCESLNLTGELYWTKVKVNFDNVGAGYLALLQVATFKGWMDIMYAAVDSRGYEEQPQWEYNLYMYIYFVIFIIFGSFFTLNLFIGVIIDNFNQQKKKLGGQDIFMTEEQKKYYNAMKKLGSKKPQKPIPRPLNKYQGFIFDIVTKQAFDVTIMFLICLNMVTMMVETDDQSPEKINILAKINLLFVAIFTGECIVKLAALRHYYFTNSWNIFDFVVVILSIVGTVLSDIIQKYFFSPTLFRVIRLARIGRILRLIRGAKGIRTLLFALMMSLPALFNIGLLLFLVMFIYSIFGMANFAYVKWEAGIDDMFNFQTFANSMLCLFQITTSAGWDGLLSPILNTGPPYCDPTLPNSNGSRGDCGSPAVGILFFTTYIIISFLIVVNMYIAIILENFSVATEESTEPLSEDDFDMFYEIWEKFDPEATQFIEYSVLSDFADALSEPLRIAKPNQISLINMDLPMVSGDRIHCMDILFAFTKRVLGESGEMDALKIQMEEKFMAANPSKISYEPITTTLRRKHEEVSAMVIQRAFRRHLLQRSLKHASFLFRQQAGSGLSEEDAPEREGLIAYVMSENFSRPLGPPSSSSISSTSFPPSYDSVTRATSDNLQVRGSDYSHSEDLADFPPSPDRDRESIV

murine astrocytes = assay: Crystal violet (CV) assay; type: cell-based
anaesthetized rat = assay: Effect on normal electrocardiogram; type: in vivo, rats;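 further: standard lead II ECG run at 50 mm/s, taken before dosing and at serial times up to 60 min after iv or 90 min after po administration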
[3] = Approximate solubility tests; type: physicochemical; conditions: pH 9.9 borate buffer
Procedure: Borate buffer pH = 9.9 was selected as one of standard buffers at this pH range. […] Initially, three organic modifiers were considered: ethanol, dimethyl sulfoxide (DMSO) and 1,4-dioxane. […] Finally, dioxane was selected due to its higher boiling point, which reduced the risk of evaporation during a prolonged experiment. During the experiment, three degradation products were observed (tR = 13 min, tR = 15 min and tR = 17 min).

MTT assay = type: cell-based, murine; conditions: mouse, astrocyte cell line (ATCC CRL-2541); 250 µM; read-out: cell viability compared to control

For CCC(CO)NCCOc1c(C)cccc1Cl (stereo not shown) [Compound 4, R,S-2-((2-(2-chloro-6-methylphenoxy)ethyl)amino)butan-1-ol], which “Test Result (neuroprotection)” value [1] is on record?
The value was “No Neuroprotection”.

And the “Picrotoxin-induced seizures ED50” value (mice)?
Its value is over 70 mg/kg.

And the “% of control +/- SEM” value (NIE-115 cells; holding potential -60 mV)?
Its value is 26 +/- 3%.

And the “% of control +/- SEM” value (NIE-115 cells; holding potential -90 mV)?
The value was 55 +/- 5%.

And the “Max induction (calculated)” value ([2]; @ 200uM)?
The value was 2 fold.

What about the EC50 ([2]; RPXR cell line, read-out: EC50 (calculated)) of the same compound?
Its EC50 is 74 µM.

And the “% Control +/- SEM” value (NMDA)?
Its value is 63%.

With CCC(CO)NCCOc1c(C)cccc1Cl (stereo not shown) [KM-408, R,S-2-((2-(2-chloro-6-methylphenoxy)ethyl)amino)butan-1-ol hydrochloride] as the compound, how does the IC50 (hNav1.5 sodium channel; 10 Hz) read?
The IC50 was 4.85 µM.

What about the IC50 (hNav1.5 sodium channel; Inactivated state) of the same compound?
Its IC50 is under 10 µM.

What about the IC50 (hNav1.5 sodium channel; Tonic block) of the same compound?
The IC50 was 47.9 µM.

And the “impact on proliferation (crystal violet)” value (murine astrocytes)?
The value was “did not exhibit cytotoxic activity and a notable impact on proliferation”.

And the PQ (anaesthetized rat; 5 mg/kg iv, 0 min)?
The PQ was 50.5 ± 2.6 ms.

And the QT (anaesthetized rat; 5 mg/kg iv, 0 min)?
The QT was 56.8 ± 3.8 ms.

What about the PQ (anaesthetized rat; 5 mg/kg iv, 1 min) of the same compound?
The PQ was 59.5 ± 5.3 ms.

And the QT (anaesthetized rat; 5 mg/kg iv, 1 min)?
The QT was 58.0 ± 3.4 ms.

What about the PQ (anaesthetized rat; 5 mg/kg iv, 3 min) of the same compound?
The PQ was 54.8 ± 2.9 ms.

What about the QT (anaesthetized rat; 5 mg/kg iv, 3 min) of the same compound?
The QT was 60.0 ± 2.8 ms.

What about the PQ (anaesthetized rat; 5 mg/kg iv, 5 min) of the same compound?
Its PQ is 54.4 ± 2.3 ms.

What about the QT (anaesthetized rat; 5 mg/kg iv, 5 min) of the same compound?
The QT was 56.8 ± 3.9 ms.

What about the PQ (anaesthetized rat; 5 mg/kg iv, 10 min) of the same compound?
Its PQ is 54.0 ± 1.9 ms.

And the QT (anaesthetized rat; 5 mg/kg iv, 10 min)?
The QT was 56.2 ± 4.2 ms.

What about the PQ (anaesthetized rat; 5 mg/kg iv, 15 min) of the same compound?
Its PQ is 54.4 ± 1.9 ms.

What about the QT (anaesthetized rat; 5 mg/kg iv, 15 min) of the same compound?
The QT was 55.2 ± 4.1 ms.

And the PQ (anaesthetized rat; 5 mg/kg iv, 20 min)?
The PQ was 54.4 ± 2.0 ms.

What about the QT (anaesthetized rat; 5 mg/kg iv, 20 min) of the same compound?
Its QT is 56.0 ± 4.0 ms.

And the PQ (anaesthetized rat; 5 mg/kg iv, 30 min)?
The PQ was 54.8 ± 1.7 ms.

What about the QT (anaesthetized rat; 5 mg/kg iv, 30 min) of the same compound?
Its QT is 57.2 ± 3.7 ms.

And the PQ (anaesthetized rat; 5 mg/kg iv, 40 min)?
Its PQ is 53.6 ± 2.2 ms.

What about the QT (anaesthetized rat; 5 mg/kg iv, 40 min) of the same compound?
The QT was 57.0 ± 3.7 ms.

What about the PQ (anaesthetized rat; 5 mg/kg iv, 50 min) of the same compound?
Its PQ is 53.6 ± 2.6 ms.

What about the QT (anaesthetized rat; 5 mg/kg iv, 50 min) of the same compound?
Its QT is 58.8 ± 3.4 ms.

What about the PQ (anaesthetized rat; 5 mg/kg iv, 60 min) of the same compound?
Its PQ is 53.6 ± 1.5 ms.

And the QT (anaesthetized rat; 5 mg/kg iv, 60 min)?
Its QT is 56.0 ± 4.0 ms.

And the “influence on heart rate or ECG intervals” value (anaesthetized rat; 50 mg/kg po)?
Its value is “did not influence”.

And the PQ (anaesthetized rat; 50 mg/kg po, 0 min)?
The PQ was 55.6 ± 1.8 ms.

What about the QT (anaesthetized rat; 50 mg/kg po, 0 min) of the same compound?
Its QT is 55.2 ± 3.9 ms.

What about the PQ (anaesthetized rat; 50 mg/kg po, 5 min) of the same compound?
Its PQ is 59.2 ± 1.9 ms.

And the QT (anaesthetized rat; 50 mg/kg po, 5 min)?
The QT was 60.0 ± 0.0 ms.

What about the PQ (anaesthetized rat; 50 mg/kg po, 10 min) of the same compound?
The PQ was 59.6 ± 2.1 ms.

And the QT (anaesthetized rat; 50 mg/kg po, 10 min)?
The QT was 59.2 ± 0.8 ms.

What about the PQ (anaesthetized rat; 50 mg/kg po, 20 min) of the same compound?
Its PQ is 59.0 ± 1.0 ms.

And the QT (anaesthetized rat; 50 mg/kg po, 20 min)?
Its QT is 58.0 ± 2.0 ms.

And the PQ (anaesthetized rat; 50 mg/kg po, 30 min)?
Its PQ is 57.4 ± 1.2 ms.

What about the QT (anaesthetized rat; 50 mg/kg po, 30 min) of the same compound?
The QT was 58.4 ± 1.0 ms.

And the PQ (anaesthetized rat; 50 mg/kg po, 40 min)?
Its PQ is 59.2 ± 1.5 ms.

What about the QT (anaesthetized rat; 50 mg/kg po, 40 min) of the same compound?
Its QT is 59.2 ± 0.8 ms.

And the PQ (anaesthetized rat; 50 mg/kg po, 50 min)?
The PQ was 58.4 ± 1.0 ms.

And the QT (anaesthetized rat; 50 mg/kg po, 50 min)?
The QT was 58.8 ± 1.2 ms.

And the PQ (anaesthetized rat; 50 mg/kg po, 60 min)?
The PQ was 58.4 ± 1.6 ms.

And the QT (anaesthetized rat; 50 mg/kg po, 60 min)?
The QT was 58.8 ± 1.2 ms.

And the PQ (anaesthetized rat; 50 mg/kg po, 70 min)?
Its PQ is 59.6 ± 1.0 ms.

And the QT (anaesthetized rat; 50 mg/kg po, 70 min)?
Its QT is 61.2 ± 4.2 ms.

And the PQ (anaesthetized rat; 50 mg/kg po, 80 min)?
Its PQ is 59.6 ± 0.4 ms.

What about the QT (anaesthetized rat; 50 mg/kg po, 80 min) of the same compound?
The QT was 60.0 ± 0.0 ms.

What about the PQ (anaesthetized rat; 50 mg/kg po, 90 min) of the same compound?
Its PQ is 59.6 ± 1.3 ms.

What about the QT (anaesthetized rat; 50 mg/kg po, 90 min) of the same compound?
The QT was 60.0 ± 0.0 ms.

And the PQ (anaesthetized rat; 300 mg/kg po, 0 min)?
The PQ was 51.6 ± 3.6 ms.

What about the QT (anaesthetized rat; 300 mg/kg po, 0 min) of the same compound?
Its QT is 58.0 ± 2.0 ms.

And the PQ (anaesthetized rat; 300 mg/kg po, 5 min)?
The PQ was 51.2 ± 3.4 ms.

And the QT (anaesthetized rat; 300 mg/kg po, 5 min)?
The QT was 57.2 ± 2.0 ms.

What about the PQ (anaesthetized rat; 300 mg/kg po, 10 min) of the same compound?
The PQ was 54.8 ± 2.1 ms.

And the QT (anaesthetized rat; 300 mg/kg po, 10 min)?
Its QT is 55.6 ± 2.0 ms.

And the PQ (anaesthetized rat; 300 mg/kg po, 20 min)?
The PQ was 55.2 ± 2.2 ms.

And the QT (anaesthetized rat; 300 mg/kg po, 20 min)?
Its QT is 58.0 ± 2.0 ms.

What about the PQ (anaesthetized rat; 300 mg/kg po, 30 min) of the same compound?
The PQ was 55.2 ± 2.2 ms.

What about the QT (anaesthetized rat; 300 mg/kg po, 30 min) of the same compound?
Its QT is 58.0 ± 2.0 ms.

And the PQ (anaesthetized rat; 300 mg/kg po, 40 min)?
Its PQ is 55.2 ± 2.1 ms.

What about the QT (anaesthetized rat; 300 mg/kg po, 40 min) of the same compound?
Its QT is 59.2 ± 0.8 ms.

What about the PQ (anaesthetized rat; 300 mg/kg po, 50 min) of the same compound?
The PQ was 55.8 ± 2.8 ms.

And the QT (anaesthetized rat; 300 mg/kg po, 50 min)?
The QT was 60.0 ± 0.0 ms.

What about the PQ (anaesthetized rat; 300 mg/kg po, 60 min) of the same compound?
The PQ was 56.0 ± 2.8 ms.

And the QT (anaesthetized rat; 300 mg/kg po, 60 min)?
Its QT is 59.2 ± 0.8 ms.

And the PQ (anaesthetized rat; 300 mg/kg po, 70 min)?
Its PQ is 55.4 ± 2.3 ms.

What about the QT (anaesthetized rat; 300 mg/kg po, 70 min) of the same compound?
Its QT is 60.0 ± 0.0 ms.

What about the PQ (anaesthetized rat; 300 mg/kg po, 80 min) of the same compound?
Its PQ is 56.0 ± 2.4 ms.

And the QT (anaesthetized rat; 300 mg/kg po, 80 min)?
The QT was 60.0 ± 0.0 ms.

And the PQ (anaesthetized rat; 300 mg/kg po, 90 min)?
Its PQ is 56.0 ± 2.4 ms.

And the QT (anaesthetized rat; 300 mg/kg po, 90 min)?
Its QT is 59.6 ± 0.4 ms.

And the solubility ([3]; 20% dioxane)?
The solubility was “dissolved fully”.

What about the solubility ([3]; 20% ethanol) of the same compound?
The solubility was “dissolved fully”.

What about the solubility ([3]; DMSO above 30%) of the same compound?
The solubility was “full solubility has not been achieved”.

And the viability at 24 h, 250 µM (MTT assay)?
The viability at 24 h, 250 µM was 81%.
